Experimental data from patent publication US9550768B2, “Kinase modulation and indications therefor” (PLEXXIKON INC., priority 2011, dated 2017).
pIC50: −log10 of the molar value.

Biological target: T1, FLT3 (Homo sapiens, UniProt P36888)
T1 construct: purchased Invitrogen PV3182
T1 sequence (P36888 564-993 limits assumed): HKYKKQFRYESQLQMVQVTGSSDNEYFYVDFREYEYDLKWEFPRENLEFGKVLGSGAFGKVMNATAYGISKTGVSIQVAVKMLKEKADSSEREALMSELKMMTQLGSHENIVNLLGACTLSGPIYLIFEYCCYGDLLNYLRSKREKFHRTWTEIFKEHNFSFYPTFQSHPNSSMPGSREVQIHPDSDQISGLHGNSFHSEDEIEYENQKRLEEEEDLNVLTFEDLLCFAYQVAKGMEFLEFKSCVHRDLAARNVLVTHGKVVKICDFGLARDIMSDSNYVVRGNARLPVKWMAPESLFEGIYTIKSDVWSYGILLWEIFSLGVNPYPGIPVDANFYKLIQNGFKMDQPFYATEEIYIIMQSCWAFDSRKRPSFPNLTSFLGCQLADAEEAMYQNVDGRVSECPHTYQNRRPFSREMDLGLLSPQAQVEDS
Assay: Flt3 biochemical assay (AlphaScreen, recombinant enzyme)
Conditions: recombinant FLT3, ATP 100 μM, room temperature, 60 minutes

Row | SMILES | pIC50
1 | COc1cnc2[nH]cc(Cc3ccc(NCc4ccc(C(F)(F)F)nc4)nc3F)c2c1 [Compound P-0187, [6-Fluoro-5-(5-methoxy-1H-pyrrolo[2,3-b]pyridin-3-ylmethyl)-pyridin-2-yl]-(6-trifluoromethyl-pyridin-3-ylmethyl)-amine] | > 8.00
2 | Fc1ccc(CNc2nc(Cl)c(Cc3c[nH]c4ncc(Cl)cc34)s2)cc1 [Compound P-0195, [4-Chloro-5-(5-chloro-1H-pyrrolo[2,3-b]pyridin-3-ylmethyl)-thiazol-2-yl]-(4-fluoro-benzyl)-amine] | > 7.00
3 | N#Cc1cnc2[nH]cc(Cc3ccc(NCc4ccc(C(F)(F)F)nc4)nc3Cl)c2c1 [Compound P-0232, 3-{2-Chloro-6-[(6-trifluoromethyl-pyridin-3-ylmethyl)-amino]-pyridin-3-ylmethyl}-1H-pyrrolo[2,3-b]pyridine-5-carbonitrile] | > 7.00
4 | COc1ccc(CNc2ccc(Cc3c[nH]c4ncc(C)cc34)cn2)cn1 [Compound P-0282, (6-Methoxy-pyridin-3-ylmethyl)-[5-(5-methyl-1H-pyrrolo[2,3-b]pyridin-3-ylmethyl)-pyridin-2-yl]-amine] | > 7.00
5 | COc1ccc(CNc2ccc(Cc3c[nH]c4ncc(Cl)cc34)cn2)cn1 [Compound P-0283, [5-(5-Chloro-1H-pyrrolo[2,3-b]pyridin-3-ylmethyl)-pyridin-2-yl]-(6-methoxy-pyridin-3-ylmethyl)-amine] | > 7.00
6 | COc1ccc(CNc2ccc(Cc3c[nH]c4ncc(C#N)cc34)cn2)cn1 [Compound P-0284, 3-{6-[(6-Methoxy-pyridin-3-ylmethyl)-amino]-pyridin-3-ylmethyl}-1H-pyrrolo[2,3-b]pyridine-5-carbonitrile] | > 6.00
7 | COc1cnc2[nH]cc(Cc3ccc(NCc4ccc(OC)nc4)nc3)c2c1 [Compound P-0332, (6-Methoxy-pyridin-3-ylmethyl)-[5-(5-methoxy-1H-pyrrolo[2,3-b]pyridin-3-ylmethyl)-pyridin-2-yl]-amine] | > 7.00
8 | Fc1cnc2[nH]cc(Cc3ccc(NCc4c(F)cccc4F)nc3)c2c1 [Compound P-0333, (2,6-Difluoro-benzyl)-[5-(5-fluoro-1H-pyrrolo[2,3-b]pyridin-3-ylmethyl)-pyridin-2-yl]-amine] | > 5.00
9 | COc1ccc(CNc2ccc(Cc3c[nH]c4ncccc34)cn2)c(OC)n1 [Compound P-0370, (2,6-Dimethoxy-pyridin-3-ylmethyl)-[5-(1H-pyrrolo[2,3-b]pyridin-3-ylmethyl)-pyridin-2-yl]-amine] | > 7.00
10 | Cc1cc(F)ccc1CNc1ccc(Cc2c[nH]c3ncccc23)cn1 [Compound P-0372, (4-Fluoro-2-methyl-benzyl)-[5-(1H-pyrrolo[2,3-b]pyridin-3-ylmethyl)-pyridin-2-yl]-amine] | > 7.00
11 | Clc1ccc(Cl)c(CNc2ccc(Cc3c[nH]c4ncccc34)cn2)c1 [Compound P-0380, (2,5-Dichloro-benzyl)-[5-(1H-pyrrolo[2,3-b]pyridin-3-ylmethyl)-pyridin-2-yl]-amine] | > 6.00
12 | CCc1ccccc1CNc1ccc(Cc2c[nH]c3ncccc23)cn1 [Compound P-0383, (2-Ethyl-benzyl)-[5-(1H-pyrrolo[2,3-b]pyridin-3-ylmethyl)-pyridin-2-yl]-amine] | > 6.00
13 | CNc1ncccc1CNc1ccc(Cc2c[nH]c3ncccc23)cn1 [Compound P-0385, Methyl-(3-{[5-(1H-pyrrolo[2,3-b]pyridin-3-ylmethyl)-pyridin-2-ylamino]-methyl}-pyridin-2-yl)-amine] | > 6.00
14 | CN(C)c1ncccc1CNc1ccc(Cc2c[nH]c3ncccc23)cn1 [Compound P-0399, Dimethyl-(3-{[5-(1H-pyrrolo[2,3-b]pyridin-3-ylmethyl)-pyridin-2-ylamino]-methyl}-pyridin-2-yl)-amine] | > 7.00
15 | N#Cc1cnc2[nH]cc(Cc3ccc(NCc4cncc(F)c4)nc3F)c2c1 [Compound P-0415, 3-{2-Fluoro-6-[(5-fluoro-pyridin-3-ylmethyl)-amino]-pyridin-3-ylmethyl}-1H-pyrrolo[2,3-b]pyridine-5-carbonitrile] | > 6.00
16 | N#Cc1cnc2[nH]cc(Cc3ccc(NCc4ccc(Cl)cc4)nc3F)c2c1 [Compound P-0432, 3-[6-(4-Chloro-benzylamino)-2-fluoro-pyridin-3-ylmethyl]-1H-pyrrolo[2,3-b]pyridine-5-carbonitrile] | > 7.00

More lines, now with the values ahead:

Row | pIC50 | SMILES
17 | > 6.00 | Fc1cncc(CNc2ccc(Cc3c[nH]c4ncc(Cl)cc34)cn2)c1 [Compound P-0324, [5-(5-Chloro-1H-pyrrolo[2,3-b]pyridin-3-ylmethyl)-pyridin-2-yl]-(5-fluoro-pyridin-3-ylmethyl)-amine]
18 | > 7.00 | COc1cnc2[nH]cc(Cc3ccc(NCc4ccccc4C(F)(F)F)nc3)c2c1 [Compound P-0326, [5-(5-Methoxy-1H-pyrrolo[2,3-b]pyridin-3-ylmethyl)-pyridin-2-yl]-(2-trifluoromethyl-benzyl)-amine]
19 | > 6.00 | COc1cnc2[nH]cc(Cc3ccc(NCc4cc(F)ccc4F)nc3)c2c1 [Compound P-0330, (2,5-Difluoro-benzyl)-[5-(5-methoxy-1H-pyrrolo[2,3-b]pyridin-3-ylmethyl)-pyridin-2-yl]-amine]
20 | > 5.00 | Fc1ccc(C(F)(F)F)c(CNc2ncc(Cc3c[nH]c4ncc(Cl)cc34)cn2)c1 [Compound P-0391, [5-(5-Chloro-1H-pyrrolo[2,3-b]pyridin-3-ylmethyl)-pyrimidin-2-yl]-(5-fluoro-2-trifluoromethyl-benzyl)-amine]
21 | > 6.00 | Fc1ccc(Cl)c(CNc2ncc(Cc3c[nH]c4ncc(Cl)cc34)cn2)c1 [Compound P-0408, (2-Chloro-5-fluoro-benzyl)-[5-(5-chloro-1H-pyrrolo[2,3-b]pyridin-3-ylmethyl)-pyrimidin-2-yl]-amine]
22 | > 6.00 | CC(Nc1ncc(Cc2c[nH]c3ncc(Cl)cc23)cn1)c1ccc(Cl)cc1 (stereo not shown) [Compound P-0427, [1-(4-Chloro-phenyl)-ethyl]-[5-(5-chloro-1H-pyrrolo[2,3-b]pyridin-3-ylmethyl)-pyrimidin-2-yl]-amine]
23 | > 6.00 | C[C@H](Nc1ncc(Cc2c[nH]c3ncc(Cl)cc23)cn1)c1ccc(F)cc1 [Compound P-0428, [5-(5-Chloro-1H-pyrrolo[2,3-b]pyridin-3-ylmethyl)-pyrimidin-2-yl]-[(S)-1-(4-fluoro-phenyl)-ethyl]-amine]
24 | > 7.00 | FC(F)(F)c1ccc(CNc2ncc(Cc3c[nH]c4ncc(Cl)cc34)cn2)cn1 [Compound P-0429, [5-(5-Chloro-1H-pyrrolo[2,3-b]pyridin-3-ylmethyl)-pyrimidin-2-yl]-(6-trifluoromethyl-pyridin-3-ylmethyl)-amine]
25 | > 6.00 | COc1ccccc1CNc1ncc(Cc2c[nH]c3ncc(Cl)cc23)cn1 [Compound P-0433, [5-(5-Chloro-1H-pyrrolo[2,3-b]pyridin-3-ylmethyl)-pyrimidin-2-yl]-(2-methoxy-benzyl)-amine]
26 | > 7.00 | Fc1cccc(CNc2ncc(Cc3c[nH]c4ncc(Cl)cc34)cn2)c1 [Compound P-0442, [5-(5-Chloro-1H-pyrrolo[2,3-b]pyridin-3-ylmethyl)-pyrimidin-2-yl]-(3-fluoro-benzyl)-amine]
27 | > 8.00 | CN(C)c1ccccc1CNc1ncc(Cc2c[nH]c3ncc(Cl)cc23)cn1 [Compound P-0449, [5-(5-Chloro-1H-pyrrolo[2,3-b]pyridin-3-ylmethyl)-pyrimidin-2-yl]-(2-dimethylamino-benzyl)-amine]

Test system: leukemia cell that express either wild type FLT3 or FLT3-ITD mutations
Assay: not given
Conditions: cited from earlier work

Row | SMILES | growth of leukemia cells
28 | C=CCNC1=C2C[C@@H](C)C[C@H](OC)[C@H](O)[C@@H](C)/C=C(\C)[C@H](OC(N)=O)[C@@H](OC)/C=C\C=C(/C)C(=O)NC(=CC1=O)C2=O [Compound 17AAG] | inhibited
